Read-outs that look alike come from different tables or passages of the source. Each block holds one compound with its values, some of them ahead of it.
Experiments:
Type in all cases: cell-based
Survivin = experiment: Effect on survivin expression (Table 9)
From the text: (§1) The effects of various compounds having general formula (I) on survivin and TCF4 expression were characterized.

TCF4 = experiment: Effect on TCF4 expression (Table 9)
From the text: as §1

[1] = test system: TCF4/β-catenin transcription (TOPFlash) in SW480 cells; experiment: Reporter gene assay (TOPFlash luciferase); settings: Homo sapiens, SW480, Table 4; Reporter gene assay as described in Example 6; read-out: IC50
How it was run: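 SW480 cells transiently co-transfected with TOPFlash and pRL-null (4:1 µg) using Superfect, then reseeded at 3×10^4 cells/well and incubated overnight at 37 °C. Compound treatment lasted 24 h before luciferase read-out.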

HCT116 cells = experiment: Growth inhibition assay (MTS); settings: Homo sapiens, Table 5, HCT116 cells, 48 hours treatment, MTS, read-out: Growth Inhibition (GI50, uM) HCT116
How it was run: (§2)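 Cells seeded at 10^4 per well, grown 24 h at 37° C, then exposed to compound at various concentrations for 48 hours. MTS added for 2 h; absorbance at 490 nm gave viability, with cytotoxicity calculated per concentration against pre-treatment reading.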

SW480 cells = experiment: Growth inhibition assay (MTS); settings: Homo sapiens, Table 5, SW480 cells, 48 hours treatment, MTS, read-out: Growth Inhibition (GI50, uM) SW480
How it was run: as §2

SMILES: CN1CC(=O)N2C(Cc3ccc(O)cc3)C(=O)N(Cc3ccc(F)cc3F)CC2N1C(=O)NCc1ccccc1 (centres unmarked)
inhibition at 5 µM (Survivin): 51% | inhibition at 25 µM (Survivin): 93% | IC50 (TCF4): ~6.3 µM

SMILES: CN(C)c1ccccc1CN1C[C@@H]2N(C(=O)CN(C)N2C(=O)NCc2ccccc2)[C@@H](Cc2ccc(O)cc2)C1=O
inhibition at 5 µM (Survivin): 41% | inhibition at 25 µM (Survivin): 92% | IC50 (TCF4): 5.2 ± 0.7 µM

SMILES: CN(C)c1cccc(F)c1CN1C[C@@H]2N(C(=O)CN(C)N2C(=O)NCc2ccccc2)[C@@H](Cc2ccc(O)cc2)C1=O
inhibition at 5 µM (Survivin): 0% | inhibition at 25 µM (Survivin): 6% | IC50 (TCF4): 18.2 ± 2.4 µM

SMILES: CN1CC(=O)N2[C@@H](CN(Cc3ccc(F)cc3C(F)(F)F)C(=O)[C@@H]2Cc2ccc(O)cc2)N1C(=O)NCc1ccccc1
inhibition at 5 µM (Survivin): 0% | inhibition at 25 µM (Survivin): 80% | IC50 (TCF4): 1.3 ± 0.1 µM

SMILES: CN(C)c1ccc(Cl)cc1CN1C[C@@H]2N(C(=O)CN(C)N2C(=O)NCc2ccccc2)[C@@H](Cc2ccc(O)cc2)C1=O
inhibition at 5 µM (Survivin): 0% | inhibition at 25 µM (Survivin): 93% | IC50 (TCF4): 2.2 ± 0.2 µM

SMILES: CCN(C)c1cccc(CN2C[C@@H]3N(C(=O)CN(C)N3C(=O)NCc3ccccc3)[C@@H](Cc3ccc(O)cc3)C2=O)c1
inhibition at 5 µM (Survivin): 46% | inhibition at 25 µM (Survivin): 96% | IC50 (TCF4): 4.4 ± 0.6 µM

SMILES: CCN(CC)c1cccc(CN2C[C@@H]3N(C(=O)CN(C)N3C(=O)NCc3ccccc3)[C@@H](Cc3ccc(O)cc3)C2=O)c1
inhibition at 5 µM (Survivin): 0% | inhibition at 25 µM (Survivin): 77% | IC50 (TCF4): 3.5 ± 0.3 µM

SMILES: CN(C)c1cc(CN2C[C@@H]3N(C(=O)CN(C)N3C(=O)NCc3ccccc3)[C@@H](Cc3ccc(O)cc3)C2=O)ccc1Cl
inhibition at 5 µM (Survivin): 0% | inhibition at 25 µM (Survivin): 92% | IC50 (TCF4): 7.3 ± 0.6 µM

SMILES: CN(C)c1cc(F)ccc1CN1C[C@@H]2N(C(=O)CN(C)N2C(=O)NCc2ccccc2)[C@@H](Cc2ccc(O)cc2)C1=O
inhibition at 5 µM (Survivin): 79% | inhibition at 25 µM (Survivin): 81% | IC50 (TCF4): 1.7 ± 0.2 µM

SMILES: Cc1cc(C)c(N(C)C)c(CN2C[C@@H]3N(C(=O)CN(C)N3C(=O)NCc3ccccc3)[C@@H](Cc3ccc(O)cc3)C2=O)c1
inhibition at 5 µM (Survivin): 0% | inhibition at 25 µM (Survivin): 84% | IC50 (TCF4): 4.8 ± 0.4 µM

SMILES: Cc1cccc(N(C)C)c1CN1C[C@@H]2N(C(=O)CN(C)N2C(=O)NCc2ccccc2)[C@@H](Cc2ccc(O)cc2)C1=O
inhibition at 5 µM (Survivin): 8% | inhibition at 25 µM (Survivin): 4%

SMILES: CN1CC(=O)N2C(CN(Cc3cc(F)c(F)c(F)c3)C(=O)[C@@H]2Cc2ccc(O)cc2)N1C(=O)NCc1ccccc1 (stereo in doubt) [Compound 16]
IC50 [1]: 3.8 µM | GI50 (HCT116 cells; HCT-116, 48 h): 2.95 µM | GI50 (SW480 cells; SW480, 48 h): 4.18 µM

SMILES: C=CCN1CC(=O)N2[C@@H](Cc3ccc(O)cc3)C(=O)N(Cc3cccc4cccnc34)C[C@@H]2N1C(=O)NCc1ccc(Cl)c(Cl)c1 [Compound 169]
GI50 (HCT116 cells; HCT-116, 48 h): 1 ± 0.2 µM | GI50 (SW480 cells; SW480, 48 h): 0.8 ± 0.1 µM

SMILES: CN1CC(=O)N2[C@@H](Cc3ccc(O)cc3)C(=O)N(Cc3ccc(F)cc3F)C[C@@H]2N1C(=O)NCc1ccc(F)cc1 [Compound 170]
GI50 (HCT116 cells; HCT-116, 48 h): 8.6 ± 0.8 µM | GI50 (SW480 cells; SW480, 48 h): 8.9 ± 0.8 µM

SMILES: C=CCN1CC(=O)N2[C@@H](Cc3ccc(O)cc3)C(=O)N(Cc3cccc4c3OCCO4)C[C@@H]2N1C(=O)NCc1ccccc1 [Compound 173]
GI50 (HCT116 cells; HCT-116): 0.8 ± 0.1 µM | GI50 (SW480 cells): 0.6 ± 0.1 µM

SMILES: C=CCN1CC(=O)N2[C@@H](Cc3ccc(OP(=O)(O)O)cc3)C(=O)N(Cc3ccc(OC)cc3)C[C@@H]2N1C(=O)NCc1ccccc1 [Compound 179]
GI50 (HCT116 cells; HCT-116): 1.6 ± 0.1 µM | GI50 (SW480 cells): 1.5 ± 0.1 µM

SMILES: C=CCN1CC(=O)N2[C@@H](Cc3ccc(O)cc3)C(=O)N(Cc3cccc4scnc34)C[C@@H]2N1C(=O)NCc1ccc(Cl)c(Cl)c1 [Compound 180]
GI50 (HCT116 cells; HCT-116, 48 h): 1.1 ± 0.1 µM | GI50 (SW480 cells; SW480, 48 h): 1 ± 0.1 µM

SMILES: C=CCN1CC(=O)N2[C@@H](Cc3ccc(OP(=O)(O)O)cc3)C(=O)N(Cc3ccc4c(c3)OCCO4)C[C@@H]2N1C(=O)NCc1ccccc1 [Compound 182]
GI50 (HCT116 cells; HCT-116): 0.8 ± 0.1 µM | GI50 (SW480 cells): 1 ± 0.1 µM

SMILES: C=CCN1CC(=O)N2[C@@H](Cc3ccc(O)cc3)C(=O)N(Cc3ccc(OC)cc3)C[C@@H]2N1C(=O)NCc1ccc(Cl)c(Cl)c1 [Compound 185]
GI50 (HCT116 cells; HCT-116, 48 h): 4.5 ± 0.2 µM | GI50 (SW480 cells; SW480, 48 h): 4.9 ± 0.4 µM

Results, then the compound that gave them:

GI50 (HCT116 cells; HCT-116, 48 h): 0.9 ± 0.1 µM | GI50 (SW480 cells; SW480, 48 h): 0.8 ± 0.1 µM
SMILES: C=CCN1CC(=O)N2[C@@H](Cc3ccc(O)cc3)C(=O)N(Cc3cccc4c3OCO4)C[C@@H]2N1C(=O)NCc1ccccc1 [Compound 172]

GI50 (HCT116 cells; HCT-116, 48 h): 1.8 ± 0.1 µM | GI50 (SW480 cells; SW480, 48 h): 1.9 ± 0.2 µM
SMILES: C=CCN1CC(=O)N2[C@@H](Cc3ccc(O)cc3)C(=O)N(Cc3cccc4c3OCCO4)C[C@@H]2N1C(=O)NCc1ccc(Cl)c(Cl)c1 [Compound 174]

GI50 (HCT116 cells; HCT-116, 48 h): 2.5 ± 0.1 µM | GI50 (SW480 cells; SW480, 48 h): 3 ± 0.4 µM
SMILES: C=CCN1CC(=O)N2[C@@H](Cc3ccc(O)cc3)C(=O)N(Cc3cccc4c3OCC4)C[C@@H]2N1C(=O)NCc1ccccc1 [Compound 175]

GI50 (HCT116 cells; HCT-116, 48 h): 1.7 ± 0.1 µM | GI50 (SW480 cells; SW480, 48 h): 1.7 ± 0.2 µM
SMILES: C=CCN1CC(=O)N2[C@@H](Cc3ccc(O)cc3)C(=O)N(Cc3cccc(OC(F)(F)F)c3)C[C@@H]2N1C(=O)NCc1ccccc1 [Compound 176]

GI50 (HCT116 cells; HCT-116, 48 h): 1.6 ± 0.1 µM | GI50 (SW480 cells; SW480, 48 h): 1.8 ± 0.1 µM
SMILES: C=CCN1CC(=O)N2[C@@H](Cc3ccc(O)cc3)C(=O)N(Cc3ccccc3)C[C@@H]2N1C(=O)NCc1ccc(Cl)c(Cl)c1 [Compound 177]

GI50 (HCT116 cells; HCT-116, 48 h): 1.5 ± 4.4 µM | GI50 (SW480 cells; SW480, 48 h): 1.6 ± 0.2 µM
SMILES: C=CCN1CC(=O)N2[C@@H](Cc3ccc(O)cc3)C(=O)N(Cc3ccc(OC)cc3)C[C@@H]2N1C(=O)NCc1ccccc1 [Compound 178]

GI50 (HCT116 cells; HCT-116, 48 h): 2.3 ± 0.1 µM | GI50 (SW480 cells; SW480, 48 h): 2.3 ± 0.1 µM
SMILES: C=CCN1CC(=O)N2[C@@H](Cc3ccc(O)cc3)C(=O)N(Cc3ccc(OC(F)(F)F)cc3)C[C@@H]2N1C(=O)NCc1ccccc1 [Compound 181]

GI50 (HCT116 cells; HCT-116, 48 h): 1.5 ± 0.1 µM | GI50 (SW480 cells; SW480, 48 h): 1.6 ± 0.3 µM
SMILES: C=CCN1CC(=O)N2[C@@H](Cc3ccc(O)cc3)C(=O)N(Cc3ccc(OC)cc3OC)C[C@@H]2N1C(=O)NCc1ccccc1 [Compound 183]

GI50 (HCT116 cells; HCT-116, 48 h): 0.7 ± 0.1 µM | GI50 (SW480 cells; SW480, 48 h): 0.7 ± 0.4 µM
SMILES: C=CCN1CC(=O)N2[C@@H](Cc3ccc(O)cc3)C(=O)N(Cc3cccc(OC)c3OC)C[C@@H]2N1C(=O)NCc1ccccc1 [Compound 184]

GI50 (HCT116 cells; HCT-116, 48 h): 2 ± 0.2 µM | GI50 (SW480 cells; SW480, 48 h): 1.7 ± 0.1 µM
SMILES: C=CCN1CC(=O)N2[C@@H](Cc3ccc(O)c(F)c3)C(=O)N(Cc3cccc4scnc34)C[C@@H]2N1C(=O)NCc1ccccc1 [Compound 186]

GI50 (HCT116 cells; HCT-116, 48 h): 1 ± 0.1 µM | GI50 (SW480 cells; SW480, 48 h): 1 ± 0.1 µM
SMILES: C=CCN1CC(=O)N2[C@@H](Cc3ccc(O)cc3)C(=O)N(Cc3cccc4sc(Cl)nc34)C[C@@H]2N1C(=O)NCc1ccccc1 [Compound 187]

GI50 (HCT116 cells; HCT-116, 48 h): 1.8 ± 0.2 µM | GI50 (SW480 cells; SW480, 48 h): 1.6 ± 0.2 µM
SMILES: C=CCN1CC(=O)N2[C@@H](Cc3ccc(O)cc3)C(=O)N(Cc3cccc4sc(N5CCCCC5)nc34)C[C@@H]2N1C(=O)NCc1ccccc1 [Compound 188]

GI50 (HCT116 cells; HCT-116, 48 h): 1.2 ± 0.1 µM | GI50 (SW480 cells; SW480, 48 h): 1 ± 0.1 µM
SMILES: C=CCN1CC(=O)N2[C@@H](Cc3ccc(O)cc3)C(=O)N(Cc3cccc4sc(N5CCOCC5)nc34)C[C@@H]2N1C(=O)NCc1ccccc1 [Compound 189]

GI50 (HCT116 cells; HCT-116, 48 h): 1.3 ± 0.1 µM | GI50 (SW480 cells; SW480, 48 h): 1.1 ± 0.1 µM
SMILES: C=CCN1CC(=O)N2[C@@H](Cc3ccc(O)cc3)C(=O)N(Cc3cccc4sc(-c5ccc(O)cc5)nc34)C[C@@H]2N1C(=O)NCc1ccccc1 [Compound 192]

GI50 (HCT116 cells; HCT-116, 48 h): 1.1 ± 0.1 µM | GI50 (SW480 cells; SW480, 48 h): 0.8 ± 0.1 µM
SMILES: C=CCN1CC(=O)N2[C@@H](Cc3ccc(O)cc3)C(=O)N(Cc3ccc(Cl)c4scnc34)C[C@@H]2N1C(=O)NCc1ccccc1 [Compound 193]

GI50 (HCT116 cells; HCT-116, 48 h): 0.2 ± 0.02 µM | GI50 (SW480 cells; SW480, 48 h): 0.2 ± 0.02 µM
SMILES: C=CCN1CC(=O)N2[C@@H](Cc3ccc(O)cc3)C(=O)N(Cc3ccc(F)c4scnc34)C[C@@H]2N1C(=O)NCc1ccccc1 [Compound 194]

GI50 (HCT116 cells; HCT-116, 48 h): 3 ± 0.3 µM | GI50 (SW480 cells; SW480, 48 h): 3.1 ± 0.4 µM
SMILES: C=CCN1CC(=O)N2[C@@H](Cc3ccc(O)cc3)C(=O)N(Cc3cccc4sc(C(=O)OCC)nc34)C[C@@H]2N1C(=O)NCc1ccccc1 [Compound 195]

Source: patent publication US7671054B1, “Reverse-turn mimetics and method relating thereto” (Choongwae Pharma Corporation, priority 2001, dated 2010)
